Read-outs that look alike come from different tables or passages of the source.
Tests used:
CK1ε = CK1ε (Homo sapiens, UniProt P49674); test: CK1ε kinase assay (Caliper LabChip electrophoretic separation of fluoresceinated peptide substrate and product); assay type: biochemical; conditions: 200 pM CK1ε, 50 μM ATP, 1.5 μM peptide, 22 hours at room temperature
In short: (§1)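 Reactions ran 22 hours at room temperature and were stopped with EDTA. Phosphorylated product and unphosphorylated substrate were then separated electrophoretically. Compounds were tested at eleven concentrations, and IC50 values came from non-linear regression.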

CK1δ = CK1δ (Homo sapiens, UniProt P48730); test: CK1δ kinase assay (Caliper LabChip electrophoretic separation of fluoresceinated peptide substrate and product); assay type: biochemical; conditions: 200 pM CK1δ, 50 μM ATP, 1.5 μM peptide, 22 hours at room temperature
In short: as §1

Chain of CK1δ (P48730 whole entry): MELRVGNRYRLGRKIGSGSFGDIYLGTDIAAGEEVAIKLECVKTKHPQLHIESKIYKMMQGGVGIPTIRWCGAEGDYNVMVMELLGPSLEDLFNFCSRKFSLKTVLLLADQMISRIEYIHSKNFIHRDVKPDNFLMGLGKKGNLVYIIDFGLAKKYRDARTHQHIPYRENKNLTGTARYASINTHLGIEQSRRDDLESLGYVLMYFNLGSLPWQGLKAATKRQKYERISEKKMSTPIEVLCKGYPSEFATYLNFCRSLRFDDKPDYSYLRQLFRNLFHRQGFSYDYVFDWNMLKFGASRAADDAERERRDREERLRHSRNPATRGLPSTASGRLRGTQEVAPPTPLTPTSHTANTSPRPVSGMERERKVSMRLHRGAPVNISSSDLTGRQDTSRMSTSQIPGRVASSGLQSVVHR
Chain of CK1ε (P49674 whole entry): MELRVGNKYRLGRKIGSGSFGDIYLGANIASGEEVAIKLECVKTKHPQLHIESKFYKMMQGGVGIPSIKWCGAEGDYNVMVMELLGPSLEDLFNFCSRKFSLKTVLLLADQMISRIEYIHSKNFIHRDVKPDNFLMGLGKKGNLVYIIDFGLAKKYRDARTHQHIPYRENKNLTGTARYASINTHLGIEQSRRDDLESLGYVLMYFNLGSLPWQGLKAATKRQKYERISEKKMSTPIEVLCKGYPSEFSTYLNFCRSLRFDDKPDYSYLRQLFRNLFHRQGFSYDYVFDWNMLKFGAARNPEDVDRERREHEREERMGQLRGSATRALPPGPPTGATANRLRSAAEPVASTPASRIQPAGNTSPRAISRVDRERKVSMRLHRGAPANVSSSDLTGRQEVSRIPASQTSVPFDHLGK

Q: How did the IC50 (CK1ε; read-out: CK1ε IC50 range) turn out when `CC1(NC(=O)N2CCn3nc(-c4ccc(F)c(Cl)c4)c(C(N)=O)c3C2)CC(F)(F)C1` [Compound 296, 2-(3-Chloro-4-fluorophenyl)-N^5-(3,3-difluoro-1-methylcyclobutyl)-6,7-dihydropyrazolo[1,5-a]pyrazine-3,5(4H)-dicarboxamide] was run?
A: The IC50 was 0.01 to 10 nM.

Q: What about the IC50 (CK1δ; read-out: CK1δ IC50 range) of the same molecule?
A: Its IC50 is 0.01 to 10 nM.

Q: Which results are given for `NC(=O)c1c(-c2cccc(Cl)c2)nn2c1CN(C(=O)NC1(c3cccnc3)CC(F)(F)C1)CC2` [Compound 312, 2-(3-Chlorophenyl)-N^5-(3,3-difluoro-1-(pyridin-3-yl)cyclobutyl)-6,7-dihydropyrazolo[1,5-a]pyrazine-3,5(4H)-dicarboxamide]?
A: IC50 (CK1ε; read-out: CK1ε IC50 range): 0.01 to 10 nM; IC50 (CK1δ; read-out: CK1δ IC50 range): 0.01 to 10 nM

Q: For `NC(=O)c1c(-c2cccc(Cl)c2)nn2c1CN(C(=O)NC1CC(F)(F)C1)CC2` [Compound 292, 2-(3-Chlorophenyl)-N^5-(3,3-difluorocyclobutyl)-6,7-dihydropyrazolo[1,5-a]pyrazine-3,5(4H)-dicarboxamide], which IC50 (CK1ε; read-out: CK1ε IC50 range) is on record?
A: Its IC50 is 10 to 100 nM.

Q: And the IC50 (CK1δ; read-out: CK1δ IC50 range)?
A: Its IC50 is 10 to 100 nM.

Q: For `NC(=O)c1c(-c2cccc(F)c2)nn2c1CN(C(=O)NC1CCCCC1)CC2` [Compound 6, N^5-Cyclohexyl-2-(3-fluorophenyl)-6,7-dihydropyrazolo[1,5-a]pyrazine-3,5(4H)-dicarboxamide], which IC50 (CK1ε; read-out: CK1ε) is on record?
A: The IC50 was 7.2 nM.

Q: What about the IC50 (CK1ε; read-out: CK1ε IC50 range) of the same molecule?
A: Its IC50 is 0.01 to 10 nM.

Q: What about the IC50 (CK1δ; read-out: CK1δ) of the same molecule?
A: The IC50 was 2.4 nM.

Q: What about the IC50 (CK1δ; read-out: CK1δ IC50 range) of the same molecule?
A: The IC50 was 0.01 to 10 nM.

Q: `CC(C)(C)NC(=O)N1CCn2nc(-c3cccc(N)c3)c(C(N)=O)c2C1` [Compound 120, 2-(3-Aminophenyl)-N^5-(tert-butyl)-6,7-dihydropyrazolo [1,5-a]pyrazine-3,5(4H)-dicarboxamide] was tested. Which IC50 (CK1ε; read-out: CK1ε IC50 range) did it give?
A: Its IC50 is 100 to 2000 nM.

Q: And the IC50 (CK1δ; read-out: CK1δ IC50 range)?
A: Its IC50 is 10 to 100 nM.

Q: `N#Cc1ccc(C2(NC(=O)N3CCn4nc(-c5cccc(Cl)c5)c(C(N)=O)c4C3)CC(F)(F)C2)cc1` [Compound 315, 2-(3-Chlorophenyl)-N^5-(1-(4-cyanophenyl)-3,3-difluorocyclobutyl)-6,7-dihydropyrazolo[1,5-a]pyrazine-3,5(4H)-dicarboxamide] was tested. Which IC50 (CK1ε; read-out: CK1ε IC50 range) did it give?
A: Its IC50 is 0.01 to 10 nM.

Q: What about the IC50 (CK1δ; read-out: CK1δ IC50 range) of the same molecule?
A: The IC50 was 0.01 to 10 nM.

Q: `CC(C)(CO)NC(=O)N1CCn2nc(-c3cccc(Cl)c3)c(C(N)=O)c2C1` [Compound A46, 2-(3-Chlorophenyl)-N^5-(1-hydroxy-2-methylpropan-2-yl)-6,7-dihydropyrazolo[1,5-a] pyrazine-3,5(4H)-dicarboxamide] was tested. Which IC50 (CK1ε; read-out: CK1ε IC50 range) did it give?
A: Its IC50 is 0.01 to 10 nM.

Q: What about the IC50 (CK1δ; read-out: CK1δ IC50 range) of the same molecule?
A: Its IC50 is 0.01 to 10 nM.

Q: For `NC(=O)c1c(-c2ccc(F)c(Cl)c2)nn2c1CN(C(=O)NC1(c3cccnc3)CC(F)(F)C1)CC2` [Compound 311, 2-(3-Chloro-4-fluorophenyl)-N^5-(3,3-difluoro-1-(pyridin-3-yl)cyclobutyl)-6,7-dihydropyrazolo[1,5-a]pyrazine-3,5(4H)-dicarboxamide], which IC50 (CK1ε; read-out: CK1ε IC50 range) is on record?
A: Its IC50 is 0.01 to 10 nM.

Q: What about the IC50 (CK1δ; read-out: CK1δ IC50 range) of the same molecule?
A: Its IC50 is 0.01 to 10 nM.

Q: What does the source list for `NC(=O)c1c(-c2ccc(Cl)c(Cl)c2)nn2c1CN(C(=O)NC1(CF)CC(F)(F)C1)CC2` [compound 303]?
A: IC50 (CK1ε; read-out: CK1ε IC50 range): 0.01 to 10 nM; IC50 (CK1δ; read-out: CK1δ IC50 range): 0.01 to 10 nM

Q: What does the source list for `CC1(NC(=O)N2CCn3nc(-c4ccc(Cl)c(Cl)c4)c(C(N)=O)c3C2)CC2(CC2)C1` [Compound 319, 2-(3,4-Dichlorophenyl)-N^5-(5-methylspiro[2.3]hexan-5-yl)-6,7-dihydropyrazolo[1,5-a]pyrazine-3,5(4H)-dicarboxamide]?
A: IC50 (CK1ε; read-out: CK1ε IC50 range): 0.01 to 10 nM; IC50 (CK1δ; read-out: CK1δ IC50 range): 0.01 to 10 nM

Q: For `CC1CN(C(=O)NC(C)(C)C)Cc2c(C(N)=O)c(-c3cccc(F)c3)nn21` (single isomer, unassigned) [Compound A109, N^5-(tert-Butyl)-2-(3-fluorophenyl)-7-methyl-6,7-dihydropyrazolo[1,5-a]pyrazine-3,5(4H)-dicarboxamide], which IC50 (CK1ε; read-out: CK1ε IC50 range) is on record?
A: The IC50 was 0.01 to 10 nM.

Q: What about the IC50 (CK1δ; read-out: CK1δ IC50 range) of the same molecule?
A: The IC50 was 0.01 to 10 nM.

Q: Which results are given for `CS(=O)(=O)[C@H]1C[C@@H](NC(=O)N2CCn3nc(-c4ccc(F)c(Cl)c4)c(C(N)=O)c3C2)C1` [Compound 272, 2-(3-Chloro-4-fluorophenyl)-N^5-((1s,3s)-3-(methylsulfonyl)cyclobutyl)-6,7-dihydropyrazolo[1,5-a]pyrazine-3,5(4H)-dicarboxamide]?
A: IC50 (CK1ε; read-out: CK1ε IC50 range): 0.01 to 10 nM; IC50 (CK1δ; read-out: CK1δ IC50 range): 0.01 to 10 nM

Q: With `NC(=O)c1c(-c2ccc(F)c(Cl)c2)nn2c1CN(C(=O)NC1CC(F)(F)C1)C[C@@H]2CO` [Compound A116, (R)-2-(3-Chloro-4-fluorophenyl)-N^5-(3,3-difluorocyclobutyl)-7-(hydroxymethyl)-6,7-dihydropyrazolo[1,5-a]pyrazine-3,5(4H)-dicarboxamide] as the molecule, how does the IC50 (CK1ε; read-out: CK1ε IC50 range) read?
A: The IC50 was 0.01 to 10 nM.

Q: And the IC50 (CK1δ; read-out: CK1δ IC50 range)?
A: The IC50 was 0.01 to 10 nM.

Q: `CC(C)(C)NC(=O)N1CCn2nc(-c3cccc(C(=O)O)c3)c(C(N)=O)c2C1` [Compound 122, 3-(5-(tert-Butylcarbamoyl)-3-carbamoyl-4,5,6,7-tetrahydropyrazolo[1,5-a]pyrazin-2-yl)benzoic acid] was tested. Which IC50 (CK1ε; read-out: CK1ε IC50 range) did it give?
A: Its IC50 is 100 to 2000 nM.

Q: What about the IC50 (CK1δ; read-out: CK1δ IC50 range) of the same molecule?
A: The IC50 was 100 to 2000 nM.

Q: Which results are given for `N#Cc1ccc(C23CCC(NC(=O)N4CCn5nc(-c6ccc(Cl)c(Cl)c6)c(C(N)=O)c5C4)(CC2)CC3)cc1` [Compound A90, N^5-(4-(4-Cyanophenyl)bicyclo[2.2.2]octan-1-yl)-2-(3,4-dichlorophenyl)-6,7-dihydropyrazolo[1,5-a]pyrazine-3,5(4H)-dicarboxamide]?
A: IC50 (CK1ε; read-out: CK1ε IC50 range): 0.01 to 10 nM; IC50 (CK1δ; read-out: CK1δ IC50 range): 0.01 to 10 nM

Q: `CC(C)(C)NC(=O)N1CCn2nc(-c3cc(F)cc(C#N)c3)c(C(N)=O)c2C1` [Compound 115, N^5-(tert-Butyl)-2-(3-cyano-5-fluorophenyl)-6,7-dihydropyrazolo[1,5-a] pyrazine-3,5(4H)-dicarboxamide] was tested. Which IC50 (CK1ε; read-out: CK1ε IC50 range) did it give?
A: Its IC50 is 100 to 2000 nM.

Q: And the IC50 (CK1δ; read-out: CK1δ IC50 range)?
A: Its IC50 is 10 to 100 nM.

Q: With `CC(C)(C)NC(=O)N1CCn2nc(-c3cccc(S(N)(=O)=O)c3)c(C(N)=O)c2C1` [Compound 136, N^5-(tert-Butyl)-2-(3-sulfamoylphenyl)-6,7-dihydropyrazolo[1,5-a] pyrazine-3,5(4H)-dicarboxamide] as the molecule, how does the IC50 (CK1ε; read-out: CK1ε IC50 range) read?
A: Its IC50 is 100 to 2000 nM.

Q: And the IC50 (CK1δ; read-out: CK1δ IC50 range)?
A: The IC50 was 100 to 2000 nM.

Q: Which results are given for `CC(C)(C)NC(=O)N1CCn2nc(-c3ccccc3F)c(C(N)=O)c2C1` [Compound 107, N^5-(tert-Butyl)-2-(2-fluorophenyl)-6,7-dihydropyrazolo[1,5-a] pyrazine-3,5(4H)-dicarboxamide]?
A: IC50 (CK1ε; read-out: CK1ε): 400 nM; IC50 (CK1ε; read-out: CK1ε IC50 range): 100 to 2000 nM; IC50 (CK1δ; read-out: CK1δ): 105 nM; IC50 (CK1δ; read-out: CK1δ IC50 range): 10 to 100 nM

Q: For `NC(=O)c1c(-c2ccc(F)c(Cl)c2)nn2c1CN(C(=O)NC13CCC(CF)(CC1)C3)CC2` [Compound A138, 2-(3-Chloro-4-fluorophenyl)-N^5-(4-(fluoromethyl)bicyclo[2.2.1]heptan-1-yl)-6,7-dihydropyrazolo[1,5-a]pyrazine-3,5(4H)-dicarboxamide], which IC50 (CK1ε; read-out: CK1ε IC50 range) is on record?
A: The IC50 was 0.01 to 10 nM.

Q: And the IC50 (CK1δ; read-out: CK1δ IC50 range)?
A: The IC50 was 0.01 to 10 nM.

Q: How did the IC50 (CK1ε; read-out: CK1ε IC50 range) turn out when `CC(C)C1CN(C(=O)NC(C)(C)C)Cc2c(C(N)=O)c(-c3ccc(F)c(Cl)c3)nn21` (single isomer, unassigned) [Compound A120, N^5-(tert-Butyl)-2-(3-chloro-4-fluorophenyl)-7-isopropyl-6,7-dihydropyrazolo[1,5-a]pyrazine-3,5(4H)-dicarboxamide] was run?
A: The IC50 was 0.01 to 10 nM.

Q: What about the IC50 (CK1δ; read-out: CK1δ IC50 range) of the same molecule?
A: Its IC50 is 0.01 to 10 nM.

Q: Which IC50 (CK1ε; read-out: CK1ε IC50 range) does the source give for `COC12CCC(NC(=O)N3CCn4nc(-c5cccc(Cl)c5)c(C(N)=O)c4C3)(CC1)C(F)(F)C2` [Compound A81, 2-(3-Chlorophenyl)-N^5-(2,2-difluoro-4-methoxybicyclo[2.2.2]octan-1-yl)-6,7-dihydropyrazolo[1,5-a]pyrazine-3,5(4H)-dicarboxamide] here?
A: Its IC50 is 0.01 to 10 nM.

Q: What about the IC50 (CK1δ; read-out: CK1δ IC50 range) of the same molecule?
A: The IC50 was 0.01 to 10 nM.

Q: With `CC(C)(NC(=O)N1CCn2nc(-c3ccc(Cl)c(Cl)c3)c(C(N)=O)c2C1)c1ccc(C#N)cc1` [Compound 200, N^5-(2-(4-Cyanophenyl)propan-2-yl)-2-(3,4-dichlorophenyl)-6,7-dihydropyrazolo[1,5-a] pyrazine-3,5(4H)-dicarboxamide] as the molecule, how does the IC50 (CK1ε; read-out: CK1ε IC50 range) read?
A: The IC50 was 0.01 to 10 nM.

Q: What about the IC50 (CK1δ; read-out: CK1δ IC50 range) of the same molecule?
A: Its IC50 is 0.01 to 10 nM.

— US9273058B2 (BRISTOL-MYERS SQUIBB COMPANY, priority 2013, dated 2016)
